Article PMC7554770, “Develop a High-Throughput Screening Method to Identify C-P4H1 (Collagen Prolyl 4-Hydroxylase 1) Inhibitors from FDA-Approved Chemicals” (International Journal of Molecular Sciences, 2020)

Tests used:
Assay type in all cases: biochemical
[1] = target: T1, C-P4H1 (collagen prolyl 4-hydroxylase 1; P4HA1 alpha subunit) (Homo sapiens, UniProt P13674); experiment: Succinate-Glo Hydroxylase luminescence assay, dose response, with no-enzyme control
T1 construct: Flag-tagged P4HA1 and P4HB co-expressed in HEK-293FT cells, purified C-P4H1 tetramer; with P4HB (protein disulfide isomerase, beta subunit)
T1 sequence (P13674 18-534): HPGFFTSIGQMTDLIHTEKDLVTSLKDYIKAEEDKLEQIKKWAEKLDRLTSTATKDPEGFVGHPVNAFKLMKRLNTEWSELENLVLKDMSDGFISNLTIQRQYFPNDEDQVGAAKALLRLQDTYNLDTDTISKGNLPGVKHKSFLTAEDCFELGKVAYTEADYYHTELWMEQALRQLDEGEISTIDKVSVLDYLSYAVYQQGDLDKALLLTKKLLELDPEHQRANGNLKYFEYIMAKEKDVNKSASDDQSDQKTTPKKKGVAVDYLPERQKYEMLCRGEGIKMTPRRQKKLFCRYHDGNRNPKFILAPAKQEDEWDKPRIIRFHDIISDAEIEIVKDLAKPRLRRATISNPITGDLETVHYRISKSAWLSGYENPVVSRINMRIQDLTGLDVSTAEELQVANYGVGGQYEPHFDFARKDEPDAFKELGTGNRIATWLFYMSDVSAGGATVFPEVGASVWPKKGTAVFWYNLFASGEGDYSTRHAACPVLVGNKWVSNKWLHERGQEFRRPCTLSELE
T1 sequence (P07237 18-508 partner): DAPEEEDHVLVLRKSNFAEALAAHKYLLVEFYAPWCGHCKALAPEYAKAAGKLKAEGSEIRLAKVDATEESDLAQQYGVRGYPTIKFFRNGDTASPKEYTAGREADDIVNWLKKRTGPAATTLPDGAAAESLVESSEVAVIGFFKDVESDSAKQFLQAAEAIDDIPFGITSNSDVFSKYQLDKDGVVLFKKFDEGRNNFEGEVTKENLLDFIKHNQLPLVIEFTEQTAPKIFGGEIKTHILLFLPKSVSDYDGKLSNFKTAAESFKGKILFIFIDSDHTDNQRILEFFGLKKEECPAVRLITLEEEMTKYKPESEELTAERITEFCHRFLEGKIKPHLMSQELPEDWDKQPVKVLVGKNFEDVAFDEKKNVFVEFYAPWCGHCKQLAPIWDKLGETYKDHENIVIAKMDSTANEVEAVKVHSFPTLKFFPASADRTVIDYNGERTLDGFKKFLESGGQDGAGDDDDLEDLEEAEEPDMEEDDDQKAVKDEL

[2] = target: T1, C-P4H1 (collagen prolyl 4-hydroxylase 1; P4HA1 alpha subunit); experiment: Succinate-Glo Hydroxylase assay, varied co-substrate concentration
[3] = target: T1, C-P4H1 (collagen prolyl 4-hydroxylase 1; P4HA1 alpha subunit); experiment: Succinate-Glo Hydroxylase luminescence assay, dose response, with no-enzyme control; remark: listed apart in the source

C[C@H](Cc1cc2c(c(C(N)=O)c1)N(CCCO)CC2)NCCOc1ccccc1OCC(F)(F)F [Silodosin]
Succinate-Glo Hydroxylase luminescence assay, dose response, with no-enzyme cont [1]: Both drugs inhibited C-P4H1 activity in a dose-dependent manner (Figure 4B,D).

O=C(O)CCC(=O)C(=O)O [α-KG, α-ketoglutarate]
Succinate-Glo Hydroxylase assay, varied co-substrate concentration [2]: increased concentration of GPPG and α-KG induced luminescence assay in a dose-dependent manner

CCOC(=O)c1ccc(O)c(O)c1 [DHB, ethyl-3,4-dihydroxybenzoic acid]
IC50 [3]: ~20 µM

Clc1ccccc1CN1CCc2sccc2C1 [Ticlopidine]
Succinate-Glo Hydroxylase luminescence assay, dose response, with no-enzyme cont [1]: indicating that Silodosin and Ticlopidine specifically inhibited the C-P4H1 activity in vitro
